Results published in paper PMC13054725 (2026).

Tests used:
[1] = test system: Dopa-A′ (DNA, aptamer) CGACGCCAGTTTGAAGGTTCGTTCGCAGGTGTGGAGTGACGTCG; assay: ITC; details: PBS 1x, 2 mM Mg2+; 1x PBS, 2 mM MgCl2, 25 °C; one-site fit
[2] = test system: Dopa-A (DA-A) (DNA, aptamer) GACGACTCCAGTTTGAAGGTTCGTTCGCAGGTGTGGAGTGAAGTCGTC; assay: ITC; details: PBS 1x, 2 mM Mg2+; 1x PBS, 2 mM MgCl2, 25 °C; one-site fit

Structure (SMILES): NCCc1ccc(O)c(O)c1
- Kd [1]: 3.5 µM
- Kd [2]: 2.7 µM
